Assays:
[1] = biological target: Thymidine phosphorylase (Escherichia coli K-12) (UniProt P07650); assay: Inhibition of Escherichia coli Thymidine Phosphorylase at a concentration of 1000 uM after 60 minutes
[2] = biological target: Thymidine phosphorylase (Escherichia coli K-12) (UniProt P07650); assay: Inhibition of Escherichia coli Thymidine Phosphorylase at a concentration of 1000 uM after 20 minutes
[3] = biological target: Thymidine phosphorylase (Escherichia coli K-12) (UniProt P07650); assay: Inhibition of Escherichia coli Thymidine Phosphorylase at a concentration of 1000 uM after 40 minutes
[4] = biological target: Thymidine phosphorylase (Escherichia coli) (UniProt P07650); assay: Inhibition of Escherichia coli TPase at a concentration of 500 uM after 60 minutes
[5] = biological target: Thymidine phosphorylase (Escherichia coli) (UniProt P07650); assay: Inhibition of Escherichia coli TPase at a concentration of 500 uM after 40 minutes
[6] = biological target: Thymidine phosphorylase (Escherichia coli) (UniProt P07650); assay: Inhibition of Escherichia coli TPase at a concentration of 500 uM after 20 minutes

Chain of Thymidine phosphorylase (Escherichia coli) (P07650 whole entry, looked up): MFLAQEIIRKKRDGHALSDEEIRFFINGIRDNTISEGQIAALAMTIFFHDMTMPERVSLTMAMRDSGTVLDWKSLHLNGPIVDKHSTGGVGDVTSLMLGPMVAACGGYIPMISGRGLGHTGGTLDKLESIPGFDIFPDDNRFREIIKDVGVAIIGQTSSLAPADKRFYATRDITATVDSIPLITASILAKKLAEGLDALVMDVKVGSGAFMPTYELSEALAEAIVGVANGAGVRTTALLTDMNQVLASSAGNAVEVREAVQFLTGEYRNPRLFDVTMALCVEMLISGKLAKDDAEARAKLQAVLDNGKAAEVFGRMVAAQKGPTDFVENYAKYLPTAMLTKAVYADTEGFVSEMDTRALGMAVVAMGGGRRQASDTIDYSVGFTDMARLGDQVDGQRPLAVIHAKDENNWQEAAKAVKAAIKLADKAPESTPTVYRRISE
Chain of Thymidine phosphorylase (Escherichia coli K-12) (P07650 whole entry, looked up): as above

Compound | inhibition [1] [%] | inhibition [2] [%] | inhibition [3] [%] | inhibition [4] [%] | inhibition [5] [%] | inhibition [6] [%]
Cc1cn(CC(O)C(O)COCP(=O)(O)O)c(=O)[nH]c1=O (stereo not given) | 0 | 0 | 0 | – | – | –
CCOP(=O)(CCCCCCCn1cc(C)c(=O)[nH]c1=O)OCC | 0 | 0 | 0 | – | – | –
Cc1cn(CCCCCCCP(=O)(O)O)c(=O)[nH]c1=O | 55 | 73 | 63 | – | – | –
Cc1cn(CCCCCCCCCP(=O)(O)O)c(=O)[nH]c1=O | 70 | 81 | 75 | – | – | –
Nc1c(Br)c(=O)[nH]c(=O)n1CCCCCCCCP(=O)(O)O | 89 | 94 | 91 | – | – | –
CCOP(=O)(CCCCCCCCCn1cc(C)c(=O)[nH]c1=O)OCC | 2 | 4 | 3 | – | – | –
Cc1cn(CCCCOCP(=O)(O)O)c(=O)[nH]c1=O | 12 | 27 | 17 | – | – | –
Cc1cn(CCCCCCCCP(=O)(O)O)c(=O)[nH]c1=O | 61 | 75 | 68 | – | – | –
O=c1[nH]c(=O)n(CCCCCCCCP(=O)(O)O)c2[nH]ccc12 | 94 | 97 | 96 | – | – | –
Cc1cn(CCCCOCOCP(=O)(O)O)c(=O)[nH]c1=O | 0 | 0 | 0 | – | – | –
Cc1cn(CCCCCCP(=O)(O)O)c(=O)[nH]c1=O | 2 | 11 | 5 | – | – | –
CCOP(=O)(CCCCCCCCn1c(N)c(Br)c(=O)[nH]c1=O)OCC | 10 | 21 | 16 | – | – | –
CCOP(=O)(CCCCCCCCn1cc(C)c(=O)[nH]c1=O)OCC | 0 | 0 | 0 | – | – | –
Cc1cn(COC/C=C\COCP(=O)(O)O)c(=O)[nH]c1=O | 0 | 0 | 0 | – | – | –
Cc1cn(CC(O)C(O)COCOCP(=O)(O)O)c(=O)[nH]c1=O (stereo not given) | 0 | 0 | 0 | – | – | –
CCOP(=O)(CCCCCCCCn1c(=O)[nH]c(=O)c2cc[nH]c21)OCC | – | – | – | 27 | 37 | 43

Other lines, results leading:

inhibition [1] [%] | inhibition [2] [%] | inhibition [3] [%] | inhibition [4] [%] | inhibition [5] [%] | inhibition [6] [%] | Compound
0 | 0 | 0 | – | – | – | Cc1cn(CC(O)C(O)COCP(=O)(OC(C)C)OC(C)C)c(=O)[nH]c1=O (stereo not given)
17 | 34 | 22 | – | – | – | Cc1cn(C/C=C\COCOCP(=O)(O)O)c(=O)[nH]c1=O
0 | 0 | 0 | – | – | – | Cc1cn(CCCCOCOCP(=O)(OC(C)C)OC(C)C)c(=O)[nH]c1=O
0 | 0 | 0 | – | – | – | Cc1cn(C/C=C\COCP(=O)(OC(C)C)OC(C)C)c(=O)[nH]c1=O
0 | 0 | 0 | – | – | – | Cc1cn(CC(O)C(O)COCOCP(=O)(OC(C)C)OC(C)C)c(=O)[nH]c1=O (stereo not given)
0 | 0 | 0 | – | – | – | Cc1cn(C/C=C\COCP(=O)(O)O)c(=O)[nH]c1=O
0 | 0 | 0 | – | – | – | Cc1cn(C/C=C\COCOCP(=O)(OC(C)C)OC(C)C)c(=O)[nH]c1=O
0 | 0 | 0 | – | – | – | Cc1cn(CCCCCCCCP(=O)(OC(C)C)OC(C)C)c(=O)[nH]c1=O
0 | 0 | 0 | – | – | – | Cc1cn(CCCCOCP(=O)(OC(C)C)OC(C)C)c(=O)[nH]c1=O

Source: ChEMBL document CHEMBL1132969, “Design, synthesis, and enzymatic evaluation of multisubstrate analogue inhibitors of Escherichia coli thymidine phosphorylase” (J Med Chem, 2000)
